Source: ChEMBL document CHEMBL1157539, “Thousands of chemical starting points for antimalarial lead identification” (Nature, 2010)

System: Plasmodium falciparum
Experiment: GSK_TCMDC: Inhibition of Plasmodium falciparum 3D7 in whole erythrocytes, using parasite LDH activity as an index of growth.
Assay type: functional, organism-based
Details: Plasmodium falciparum, 3D7

| Compound | XC50 [nM] |
| --- | --- |
| OC(CNCc1ccccc1OCc1ccccc1)c1cccc(Cl)c1 (configuration not stated) | 219 |
| NCCCNc1nc(Nc2ccc(C(F)(F)F)cc2F)c2c(=O)[nH]ccc2n1 | 1050 |
| CC(=O)Oc1c(C2CCN(CCCCNC(=O)c3ccc(-c4ccc(C#N)cc4)cc3)CC2)ccc2c1CCCC2 | 1130 |
| CC(=O)c1ccc(O)c(CC(O)CO)c1 (configuration not stated) | 723 |
| O=C(CCC(=O)c1ccc2c3c(cccc13)CC2)NC1CCC(CN2CCC(c3c[nH]c4ccccc34)CC2)CC1 (configuration not stated) | 918 |
| O=C(OCC1CCN(Cc2ccccc2)C1)c1ccc(Cl)cc1 (configuration not stated) | 680 |
| O=C(/C=C/c1ccc(Cl)c(Cl)c1)NCCCCCN1CCCN(C(=O)Nc2cc(Cl)nc(Cl)c2)CC1 | 786 |
| CS(=O)(=O)Nc1ccc(OCCCCCCOc2ccc(NS(C)(=O)=O)cc2)cc1 | 493 |
| CNS(=O)(=O)c1ccc(NC(=O)c2cc(-c3cccnc3)nc3ccc(Br)cc23)cc1 | 907 |
| O=C(Nc1ccc2c(c1)CCN2C1CCN(Cc2ccc(O)cc2)C1)c1ccco1 (configuration not stated) | 897 |
| Cc1cccc2nc(-c3ccc(-c4cccc(NC(=O)Nc5ccc6c(c5)OCO6)c4)cc3)[nH]c12 | 745 |
| Fc1ccc(-c2cncc(-c3ccc(F)cc3)n2)cc1 | 639 |
| O=C(Cc1ccccc1)NC1CCN(c2ccnc3cc(Cl)ccc23)C1 (configuration not stated) | 805 |
| COC(=O)[C@@H](NC(=O)[C@H](Cc1ccc(OC)c(OC)c1)Nc1ccc(C#N)c2ccccc12)c1ccc(O)cc1 | 751 |
| CCCCCN1C(=O)C(c2ccccc2)(c2ccccc2)N=C1N | 793 |
| O=C(Nc1ccc(Br)cc1)N(CCN1CCOCC1)CC(O)COc1ccc(Cl)c(F)c1 (configuration not stated) | 1040 |
| CN1CCC(c2cc3c(cc2Br)CCN3C(=O)Nc2ccc(-c3ccncc3)c(Cl)c2)CC1 | 1010 |
| CC1CN(Cc2ccccc2)CCN1c1ccc(NC(=O)c2cccs2)cc1 (configuration not stated) | 276 |
| O=S(=O)(Nc1ccc(CCN2CCC(N3CCCCC3)CC2)cc1)c1cccc(C(F)(F)F)c1 | 702 |
| CCCCNC(=O)c1[nH]c2c(NC(=O)COc3ccccc3)cccc2c1-c1cccc(NC(=O)C(N)CO)c1 (configuration not stated) | 852 |
| O=C(C=Cc1ccc(Br)cc1)N1CCC(CCN2CCC(c3c[nH]c4ccccc34)CC2)CC1 | 919 |
| COc1ccc2c(c1)nc(CNC(=N)N)n2Cc1ccc(Cl)cc1 | 359 |
| CC(=O)Nc1ccc(CN(Cc2ccc(OC(C)(C)C)cc2)Cc2ccc3c(c2)OCCO3)cc1 | 927 |
| CCCCCN1CCCCC(NS(=O)(=O)c2ccc(C(=O)Nc3ccc(C(F)(F)F)cc3)cc2)C1 (configuration not stated) | 768 |
| O=[N+]([O-])c1ccccc1C=NN=c1cc[nH]c2ccccc12 | 863 |

| Compound | XC50 [nM] |
| --- | --- |
| CCCc1cc(Cc2cnc(N)nc2N)cc(CCC)c1OCCCC(=O)OCC | 51.8 |
| N#Cc1ccc(CN2CCCN(Cc3cccc(NC(=O)c4cc5ccccc5s4)c3)CC2)cc1 | 907 |
| COc1ccc2nc3cc(Cl)ccc3c(NCCO)c2c1 | 800 |
| CC(C)CNCc1ccc(-c2ccc(CN(CCCN3CCN(C)CC3)C(=O)/C=C/c3ccccc3)cc2)cc1 | 917 |
| COc1cc2nc(C)nc(Nc3ccc(Oc4ccccc4)cc3)c2cc1OC | 720 |
| CNC(=O)c1cnc(Nc2ccc3[nH]c(=O)[nH]c3c2)nc1Nc1cccc(OC(C)C)c1 | 926 |
| CC(=O)Nc1ccc(CN(Cc2ccc(C)cc2)Cc2cccc(Oc3ccccc3)c2)cc1 | 1050 |
| COc1ccc2nccc([C@@H](O)CN3CCC(NC(=O)C(=Cc4ccc(C#N)cc4)c4ccc(-c5ccccc5)cc4)CC3)c2c1 | 739 |
| N=C(N)Nc1ccc(OCCCCCOc2ccc(NC(=N)N)c(Cl)c2)cc1Cl | 857 |
| O=C(/C=C/c1ccc(Cl)c(Cl)c1)NCCCCCN1CCC(CCNC(=O)/C=C/c2ccc(Cl)c(Cl)c2)CC1 | 561 |
| COc1cc2c(c(Cl)c1OC)CCN(Cc1ccccc1)CC2c1ccc(NC(=O)C(F)(F)F)cc1 (configuration not stated) | 924 |
| CCCc1c(C(=O)Nc2ccc3c(c2)CCN(C2CCC2)CC3)cnn1-c1ccc(Cl)cc1 | 858 |
| CN1CCCC1CCOc1ccc2c(c1)N(C(=O)Nc1cc(Br)cc(C(F)(F)F)c1)CC2 (configuration not stated) | 247 |
| O=C(NCCCCN1CCC(c2cccc3ccccc23)CC1)c1ccc(-c2ccc(C(F)(F)F)cn2)cc1 | 867 |
| N#Cc1ccc(N/C(=N\c2ccccc2Br)N(C2CCCCC2)C2CCCCC2)c(O)c1 | 785 |
| CN1CCCC1CCNc1ncc2c(-c3ccc(NC(=O)Nc4cc(C(F)(F)F)ccc4F)cc3)nn(C)c2n1 (configuration not stated) | 344 |
| Cc1ccc(C2(CN3CCC(NC(=O)c4n[nH]cc4Cl)CC3)CCCCC2)cc1 | 321 |
| Cc1cc(Nc2ccnc(-c3ccc(Cl)cc3)n2)ccn1 | 1040 |
| COc1cc(C=NNc2cc(C)nc3c(OC)cccc23)cc(OC)c1OC | 887 |
| COc1ccc(-c2cnc3ccc(NCc4ccc(S(N)(=O)=O)cc4)nn23)cn1 | 867 |
| COc1ccc(NC(=O)Nc2ccc(-c3ccncc3)c(Cl)c2)cc1N1CCN(C)CC1 | 755 |
| COc1ccc(CNC2CCN(C)CC2)cc1-c1ccc(S(=O)(=O)NCCc2ccccn2)cc1 | 1090 |
| CO/C(=C\C=C\c1cc2cc(Cl)c(Cl)cc2[nH]1)C(=O)NCCCNC12CC3CC(CC(C3)C1)C2 | 730 |
| NC(=O)c1cccc(C(=O)Nc2ccc(-c3cccc(-c4nc5cc(F)ccc5[nH]4)c3)cc2)c1 | 865 |
| Cc1noc(C)c1-c1cccc(CNCc2cccc(-c3ccc(-c4nc5cccc(C)c5[nH]4)s3)c2)c1 | 211 |

| Compound | XC50 [nM] |
| --- | --- |
| CCCC(CC)n1ccc2c3c(N)nc(N)nc3ccc21 (configuration not stated) | 5.92 |
| CN(C(=O)C1(c2ccc(Cl)cc2)CC1)C1CCN(CCCCCNC(=O)/C=C/c2ccc(Cl)c(Cl)c2)CC1 | 769 |
| Cc1nc(NC(=N)N)nc2cc3c(cc12)CCC3 | 916 |
| CCN(CCO)CCc1cccc(Nc2nccc(-c3c(-c4ccc(NC(=O)N(CC)CC)cc4)nn4ccccc34)n2)c1 | 1110 |
| COc1cccc(C(=O)NC(NC(=S)Nc2ccc(OC)cc2[N+](=O)[O-])C(Cl)(Cl)Cl)c1 (configuration not stated) | 758 |
| COc1cc2c(cc1N(C(C)C)S(=O)(=O)c1sc3ccc(Cl)cc3c1C)CCNCC2 | 1050 |
| Oc1ccc2nc(N3CCNCC3)nc(NCCCc3ccccc3)c2c1 | 1370 |
| CN1CCN(CCCN(Cc2ccc(-c3cccc(CNC4CCCC4)c3)cc2)C(=O)/C=C/c2ccccc2)CC1 | 1330 |
| CC(C)(C)c1ccc2[nH]c(-c3ccc(/C=C/C(=O)NCc4ccc(Cl)c(Cl)c4)cc3)nc2c1 | 35.4 |
| CCN(CC)CCNC(=O)c1ccc(NC(=O)c2ccc(-c3cc(NC(=O)CC4CCCC4)ccc3C)cc2)cc1 | 564 |
| Cc1cccc2nc(-c3cccc(-c4ccc(CNCc5ccc(S(C)(=O)=O)cc5)cc4)c3)[nH]c12 | 184 |
| Cc1cccc2nc(-c3ccc(-c4ccc(CNCc5cnn(-c6ccccc6)n5)cc4)cc3)[nH]c12 | 428 |
| CCC(C)(C)c1ccc(Oc2ccc(NC(=O)Nc3ccc(Cl)c(Cl)c3)cc2)cc1 | 704 |
| COCc1ccc(CN2CCC(C(=O)Nc3ccc(-c4nc5ccccc5[nH]4)cc3)CC2)o1 | 853 |
| O=C(Cc1ccc(Cl)cc1)NC1CCN(c2ccnc3cc(Cl)ccc23)C1 (configuration not stated) | 226 |
| O=S(=O)(Nc1cccc(CCN2CCC(N3CCCCC3)CC2)c1)c1ccc(-c2ccccc2)cc1 | 1120 |
| COc1ccc(-c2nc(NC(=O)CSc3ccccc3)sc2C)cc1 | 764 |
| c1cc(-c2ccc(CNCCCN3CCOCC3)cc2)cc(-c2nc3ccccc3[nH]2)c1 | 207 |
| CCCCN(C)CC#Cc1ccc(-c2ccc3[nH]c(C)c(Br)c(=O)c3c2)cn1 | 647 |
| Clc1ccc(-c2cnc3ccc(NCc4ccncc4)nn23)cc1 | 891 |
| CN1CCc2ccc(NC(=O)Nc3cccc(C(=O)c4ccccc4)c3)cc2C1 | 917 |
| O=C(/C=C/c1ccc(Cl)c(Cl)c1)NCCCCCN1CCCN(C(=S)Nc2ccc(Cl)cc2)CC1 | 1130 |
| N#CC1(c2ccccc2)CCN(c2nc(NCCCN3CCCC3=O)nc(N3CCCC4CCCCC43)n2)CC1 (configuration not stated) | 864 |
| CCCN1CCN(CCCNc2c3ccccc3nc3ccccc23)CC1 | 547 |
| C=CCC(CC=C)N1C(=O)C(c2ccccc2)(c2ccccc2)N=C1N | 659 |

| Compound | XC50 [nM] |
| --- | --- |
| O=C(NCc1ccc(Cl)c(Cl)c1)c1cc(CNC2CCNCC2)ccc1O | 859 |
| COc1ccc2nccc([C@@H](O)CN3CCC(NC(=O)c4cccc(-c5cc(C)no5)c4)CC3)c2c1 | 345 |
| O=C(NCc1cccc(C(F)(F)F)c1)C1CCCN(C(=O)c2ccc(O)c(-c3ccc(Cl)c(Cl)c3)c2)C1 (configuration not stated) | 804 |
| Cc1ccc(Nc2nccc(Nc3ccc4c(c3)nc(Nc3cc(C(C)(C)C)on3)n4C)n2)cc1S(C)(=O)=O | 599 |
| Cc1cc(C)cc(OCC(O)CN(CCN2CCOCC2)C(=O)Nc2ccc(Br)cc2)c1 (configuration not stated) | 1030 |
| Cc1ccc2c(Cl)c(C(=O)N3CC(C)OC(C)C3)sc2c1 (configuration not stated) | 176 |
| CCCC1(NC[C@@H](O)[C@H](Cc2ccccc2)NC(=O)c2cc(NCC)cc(N3CCCCS3(=O)=O)c2)CCCC1 | 505 |
| O=C(NC1CC1)c1ccc(N2CCOc3ccc(Cl)cc32)s1 | 803 |
| Cc1cnc(C(=O)Nc2cccc(-c3csc(-c4nc5ccccc5[nH]4)c3)c2)cn1 | 275 |
| Cc1ccc2[nH]c(-c3ccccc3Nc3ccnc4cc(-c5nccs5)ccc34)nc2c1 | 190 |
| CCCC1(NC[C@@H](O)[C@H](Cc2ccccc2)NC(=O)c2cc(NCC)cc(N3CCCCS3(=O)=O)c2)CC1 | 1080 |
| O=C(Nc1ccc(Cl)cc1F)N[C@H]1CCN(CCCCCNC(=O)C2CC2c2ccc(Cl)c(Cl)c2)C1 (some centres not stated) | 1090 |
| COc1ccc(Nc2ncc(OC)c(Nc3ccccc3C(N)=O)n2)cc1N1CCN(C)CC1 | 740 |
| Cc1[nH]c(C)c(-c2ccc(OCc3cc(C(F)(F)F)cc(C(F)(F)F)c3)nc2)c(=O)c1Br | 152 |
| Cc1cc(CN2CCCC(OC(c3ccc(F)cc3)c3ccc(F)cc3)C2)ccc1O (configuration not stated) | 883 |
| O=C(N/C=N/c1cc([N+](=O)[O-])c(-c2cccnc2)n1-c1ccc(O)cc1)c1ccccc1 | 299 |
| O=C(/C=C/c1ccc([N+](=O)[O-])cc1)N1CCC(NS(=O)(=O)c2cccc(C(F)(F)F)c2)CC1 | 847 |
| Cn1nc2ccc3ccccc3c2nc1=N | 773 |
| CCCCNS(=O)(=O)c1ccc(NC(=O)c2cc([N+](=O)[O-])ccc2Cl)cc1 | 902 |
| CN(CCCNc1ccc(C(=O)Nc2ccc(C(F)(F)F)cc2)cc1[N+](=O)[O-])Cc1ccccc1 | 229 |
| Cc1cccc(C(=O)Nc2ccnc(N3CCC(N(C)Cc4cccc(C#N)c4)CC3)c2)c1 | 1100 |
| COc1ccccc1-n1c(SCC(=O)Nc2ccccc2F)nc2cccnc21 | 417 |
